# Source: US20140066394A1, “Substituted 6-(Benzylamino) Purine Riboside Derivatives, Use Thereof and Compositions Containing These Derivatives” (Biopatterns, S.R.O, priority 2009, published 2014)
# Assay: Solubility noted on isolation of the product
# Format: physicochemical
# Conditions: qualitative, solvent as stated
# Description: 2-Benzylmercapto-6-(2-hydroxy-3-methoxybenzylamino)purine riboside (1.18 g) was dissolved in liquid ammonia (125 mL) to yield a clear yellow solution. […]. Sodium was added in small portions until the blue colouration persisted for 15 mins A small amount of solid ammonium chloride was added cautiously to remove excess Na. The ammonia was evaporated to a small volume on a hot plate and ether (125 mL) added (to remove bibenzyl formed as a by-product). After most of the remaining ammonia had been evolved the ether extract was extracted with water (2×65 mL). The aqueous extrakt (at pH 12 to 13) was adjusted to 5 with AcOH cooling to below 10 on dry ice. A creamy solid precipitated. The solid was filtered, washed thoroughly with water and dried overnight over calcium chloride to yield a virtually white, very light powder. Yield: 760 mg. 2-Mercapto-6-(2-hydroxy-3-methoxybenzylamino)purine riboside gives a sharp, symmetrical peak on HPLC (300 nm) and moves readily on TLC in MeOH/chloroform mixtures. […] EtOH solution develops strong yellow colour on standing at room temperature for several days.
# 2-Methylmercapto-6-chloropurine riboside (3.3 g, 10 mmol) was refluxed with 2-hydroxy-3-methoxybenzylamine ([…], 12 5 mmol) in butanol (100 mL) containing triethylamine (3.2 mL) for 2 h. The butanol was removed under vacuum at 50 to 60° C. […]
row,Structure (SMILES),solubility
1,"COc1cccc(CNc2nc(S)nc3c2ncn3[C@@H]2O[C@H](CO)[C@@H](O)[C@H]2O)c1O [Compound 71, 2-Mercapto-6-(2-hydroxy-3-methoxybenzylamino)purine riboside]",soluble in EtOH
2,"COc1cccc(CNc2nc(SC)nc3c2ncn3[C@@H]2O[C@H](CO)[C@@H](O)[C@H]2O)c1O [Compound 87, 2-Methylmercapto-6-(2-hydroxy-3-methoxybenzylamino)purine riboside]",very soluble in methanol and water
